Experiment: water solubility of α-diazocarbonyl substrates under the conditions of the oligonucleotide modification reaction
Assay type: physicochemical
Settings: aqueous reaction mixture, 100 mM MES buffer, pH 6.0, 50 mM α-diazocarbonyl compound
Source text: A number of a-diazocarbonyl substrates were screened as potential candidates for the target reaction of oligonucleotide modification (Table 4). […] Increasing the bulkiness of the ester moiety appeared to have a negative effect on the yields of modified oligonucleotide as for entry 2 the efficacy of modification was reduced twice in comparison to the methyl ester counterpart (entry 1) and with the compound from entry 7 only trace amounts of modified oligonucleotide were isolated.
General procedure for Rh2(OAc)4-catalyzed oligonucleotide modification using a-diazocarbonyl compounds. Typically […] reaction mixtures containing 5 mM oligonucleotide, […] Rh2(OAc)4 and 50 mM a-diazocarbonyl compound in 100 mM MES buffer, pH 6.0 were kept at 20 °C for 24-72 h. Analysis of the reaction products was carried out by micropreparative HPLC-separation of 5-ml aliquots of the reaction mixtures using method A. The collected peak fractions were further assessed by ESI-MS or MALDI TOF.

Structure (SMILES)	water solubility under the conditions of the analysis
COC(=O)C(=[N+]=[N-])c1ccc(CN(C)C)cc1 [Dz-1, Methyl 2-diazo-2-(4-((dimethylamino)methyl)phenyl)acetate]	sufficiently water-soluble
C#CCN1CCN(CCOCCOCCOCCN2CCN(Cc3ccc(C(=[N+]=[N-])C(=O)OC)cc3)CC2)CC1 [Dz-2, Methyl2-diazo-2-(4-((4-(2-(2-(2-(2-(4-(prop-2-yn-1-yl)piperazin-1-yl)ethoxy)ethoxy)ethoxy)ethyl)piperazin-1-yl)methyl)phenyl)acetate]	sufficiently water-soluble
CCOC(=O)C(=[N+]=[N-])c1ccc(CN(C)C)cc1 [entry 2]	sufficiently water-soluble

— patent EP2689847A1, “Methods for catalytic alkylation of nucleic acids” (Universität Basel, priority 2012, dated 2014)
